Test results as given in patent publication US20240279562A1, “BIOACTIVE ADDITIVE FOR A FUEL, USES THEREOF, FUEL COMPOSITION, AND METHOD” (TUNAP GMBH & CO. KG, priority 2021, published 2024).

How the values were obtained:
Type in all cases: cell-based
[1] = system: Hormoconis resinae ATCC 20495; experiment: Antimicrobial activity according to ASTM E 1259-10, kerosene fungus; settings: FIG. 3, additive 1000 ppm, additive composition 2000 ppm or 5000 ppm; for killing of the tested kerosene fungus: MBO 1000 ppm
Source text: • “TUNAP active ingredient”: test solution containing 1000 ppm 2-(2-heptadec-8-enyl-2-imidazolin-1-yl)ethanol additive (example according to the disclosure). • “TUNAP Protection System Diesel”: test solutions containing 2000 ppm or 5000 ppm of the additive composition “1903391” described below (corresponding to approx. 1000 ppm or 2500 ppm of the active ingredient 2-(2-heptadec-8-enyl-2-imidazolin-1-yl)ethanol) (examples according to the disclosure). • “Tunap 685 (Protezione Diesel) Biocide with MBO”: test solution containing 1000 ppm of the biocide MBO (3,3-methylenebis (5-methyloxazolidine), (comparative sample). • “BIT”: test solution containing 1000 ppm of the biocide BIT (benzisothiazolinone) (comparative sample). • “blank”: fuel without addition of an additive (comparative sample)
• at least 50% by weight 2-(2-heptadec-8-enyl-2-imidazolin-1-yl)ethanol • 10 to 20% by weight C10-C13 hydrocarbons • 5 to 10% by weight 2,6-di-tert-butyl-4-cresol • 5 to 10% by weight 2-ethylhexanol • 5 to 10% by weight 2-ethylhexyl nitrate • 5 to 10% by weight. of a mixture of bis(2-ethylhexyl)[(4-methyl-1H-1,2,3-benzotriazol-1-yl)methyl]amine, bis(2-ethylhexyl) [(4-methyl-2H-1,2,3-benzotriazol-2-yl)methyl]amine, bis(2-ethylhexyl) [(5-methyl-1H-1,2,3-benzotriazol-1-yl)methyl]amine, bis(2-ethylhexyl) [(5-methyl-2H-1,2,3-benzotriazol-2-yl)methyl]amine, bis(2-ethylhexyl) [(6-methyl-1H-1,2,3-benzotriazol-1-yl)methyl]amine
• Hormoconis resinae ATCC 20495 (“kerosene fungus”) • Pseudomonas aeruginosa DSM 15980 (“bacterium”) • Yarrowia tropicalis ATCC 48138 (“yeast”)
(§1) The antimicrobial activity of the samples against the tested microorganisms was determined according to ASTM E 1259-10.

[2] = system: Pseudomonas aeruginosa DSM 15980; experiment: Antimicrobial activity according to ASTM E 1259-10, bacterium; settings: FIG. 4; additive composition 2000 ppm or 5000 ppm, MBO 1000 ppm
Source text: (§2) • “TUNAP active ingredient”: test solution containing 1000 ppm 2-(2-heptadec-8-enyl-2-imidazolin-1-yl)ethanol additive (example according to the disclosure). • “TUNAP Protection System Diesel”: test solutions containing 2000 ppm or 5000 ppm of the additive composition “1903391” described below (corresponding to approx. 1000 ppm or 2500 ppm of the active ingredient 2-(2-heptadec-8-enyl-2-imidazolin-1-yl)ethanol) (examples according to the disclosure). • “Tunap 685 (Protezione Diesel) Biocide with MBO”: test solution containing 1000 ppm of the biocide MBO (3,3-methylenebis (5-methyloxazolidine), (comparative sample). • “BIT”: test solution containing 1000 ppm of the biocide BIT (benzisothiazolinone) (comparative sample). • “blank”: fuel without addition of an additive (comparative sample) […]
as §1

[3] = system: Yarrowia tropicalis ATCC 48138; experiment: Antimicrobial efficacy according to DIN EN 15457:2014-11, yeast fungus; settings: FIG. 2; test solution 1% by weight additive vs 0.1% by weight MBO or MIT
Source text: (§3) • “TUNAP new”: Test solution containing 1% by weight 2-(2-heptadec-8-enyl-2-imidazolin-1-yl)ethanol additive (example according to the disclosure). • “Standard diesel bug biocide with MBO”: test solution containing 0.1% by weight of the biocide MBO (3,3-methylenebis (5-methyloxazolidine)) (comparative sample). • “MIT”: test solution containing 0.1% by weight of the biocide MIT (2-methyl-2H-isothiazol-3-one), (comparative sample). • “Pure fuel”: fuel without the addition of an additive (comparative sample)
(§4) • Hormoconis resinae ATCC 20495 (“kerosene fungus”) • Yarrowia tropicalis ATCC 48138 (“yeast fungus”)
(§5) The antimicrobial efficacy of the samples against the tested microorganisms was determined according to DIN EN 15457:2014-11.

[4] = system: Yarrowia tropicalis ATCC 48138; experiment: Antimicrobial activity according to ASTM E 1259-10, yeast; settings: FIG. 5; additive 1000 ppm, additive composition 2000 ppm or 5000 ppm, BIT 1000 ppm
Source text: as §2, §1

[5] = system: Hormoconis resinae ATCC 20495; experiment: Antimicrobial efficacy according to DIN EN 15457:2014-11, kerosene fungus; settings: FIG. 1; test solution 1% by weight additive vs 0.1% by weight MBO or MIT
Source text: as §3, §4, §5

Row | Compound | killing of the tested kerosene fungus [1] | killing of the tested bacterium [2] | efficacy against the tested kerosene fungus compared with BIT ([1]; BIT 1000 ppm) | efficacy against the tested yeast fungus compared with MBO and MIT [3] | efficacy against the tested yeast compared with BIT [4] | efficacy against the tested kerosene fungus compared with MBO and MIT [5]
1 | CC1CN(CN2COC(C)C2)CO1 (stereo not shown) [MBO, 3,3-methylenebis (5-methyloxazolidine), reference compound] | almost complete killing | almost complete killing | – | – | – | –
2 | CCCCCCCCC=CCCCCCCCC1=NCCN1CCO [additive according to the disclosure, 2-(2-heptadec-8-enyl-2-imidazolin-1-yl)ethanol] | almost complete killing | – | significantly improved efficacy against the tested kerosene fungus than the conventional biocide BIT | at least a similar efficacy against the tested yeast fungus as the conventional but toxic biocides MBO and MIT | significantly improved efficacy against the tested yeast than the conventional biocide BIT | significantly improved efficacy against the tested kerosene fungus than the conventional and also toxic biocides MBO and MIT
